# Experimental data published in patent US9233163B2, “Hydrolytically releasable prodrugs for sustained release nanoparticle formulations” (The Children's Hospital of Philadelphia, priority 2010, dated 2016).
# Experiments:
# [1] = tested on: rat aortic smooth muscle cells (A10); assay: A10 growth inhibition by PTX derivatives, Alamar Blue assay; type: cell-based; details: free compound, 2 hr incubation, cell viability 7 days post treatment vs untreated cells
# Method: Cells seeded at 10% confluency on 96-well plates were incubated with the compounds at indicated PTX molar equivalent doses for 2 hr, and the cell viability was compared to that of untreated cells 7 days post treatment using the Alamar Blue assay.
# [2] = Drug release from typical PTX MNP under sink conditions; type: physicochemical; details: MNP comprising PTX, iron oxides and polylactide carrier
# Excerpt: For example in a typical MNP comprising PTX, iron oxides and a polylactide carrier, about 50% and 80% of the drug is released under sink conditions after 4 hr and 24 hr, respectively. This may be too fast for optimal restenosis inhibition, given that the period of vulnerability to restenotic activity may extend for several weeks. It is believed that the large surface area to volume ratio and small linear dimensions of nanoparticles, combined with the relatively low molecular weight of PTX and limited affinity toward the carrier particles, result in the excessively rapid PTX escape from the nanoparticles. To deal with this problem, it has been found necessary to greatly increase the affinity of the PTX for the polymeric carrier. This has now been done by binding PTX to a structure (hereinafter “anchor”) that limits the diffusivity within the MNP compared with that of unbound PTX itself. The resulting PTX-anchor conjugate is a PTX prodrug. Prodrugs according to the invention are converted to the corresponding drugs (e.g., PTX) in vivo in a patient, which may be a human or other animal. The prodrug can be incorporated in the MNP with a high entrapment yield and can provide protracted drug release at the site of arterial injury.
# [3] = In vitro release kinetics and recovery from MNP, external sink method; type: physicochemical; details: for total recovered (release medium samples and upon experiment termination): MNP diluted 1:500 in phosphate buffer with 2% bovine serum albumin, heptane/1-octanol acceptor, 5-day experiment; for initial drug payload still present in the MNP: at the end of the 5-day experiment, extraction in 1-octanol
# Method: The release of 2′-PTX-glycol-suc-Chol from MNP was measured in comparison with PTX using the external sink method. A 1:1 mixture of heptane and 1-octanol was used as the acceptor medium to ensure perfect sink conditions. MNP were diluted 1:500 in phosphate buffer containing 2% bovine serum albumin, included to more closely model in vivo conditions. Released drug was assayed spectrophotometrically in the acceptor phase at predetermined timepoints (λ=230 nm). After five days the amount of the compounds remaining in MNP was measured following extraction in 1-octanol.
# [4] = Model experiments estimating stability of ester bonds (half-hydrolysis in phosphate buffer); type: physicochemical; details: pH=7 phosphate buffer at 21-22° C.
# Excerpt: Based on the results of the model experiments, paclitaxel 2′-esters with N-acylglycines and acyloxyacetic acids containing highly hydrophobic residues (e.g., derived from cholesterol or tocopherol) are the most suitable for encapsulation in sustained release nanoparticle formulations as rapidly cleavable PTX prodrugs. In the context of in-stent restenosis therapy, these unique designs more effectively confine the drug formulated in magnetically targeted MNP to the stented area. Importantly, the by-products of the prodrug degradation deriving from the anchor and the linking group are all biocompatible endogenous small molecules, rapidly eliminated via natural metabolic pathways.
# A10 cells [5] = assay: Magnetically guided A10 growth inhibition by MNP loaded with PTX derivatives; type: cell-based, rat; details: compounds formulated in MNP, 5 min exposure, high gradient magnetic field (32.5 T/m), viability 7 days post treatment
# Method: Polylactide-based MNP were formulated with inclusion of nanocrystalline magnetite by a modification of the emulsification-solvent evaporation method. Ferric chloride hexahydrate and ferrous chloride tetrahydrate (170 and 62.5 mg, respectively) were dissolved in ethanol (2.5 mL) and mixed with freshly prepared aqueous sodium hydroxide (0.5 N, 5 mL). The precipitate was heated for 1 min at 90° C., cooled on ice, and separated on a magnet. The obtained magnetite was stirred with a solution of oleic acid in ethanol (150 mg in 2 mL) at 90° C. for 5 min. Free oleic acid was separated by deionized water. Magnetite was washed with ethanol, dispersed in 8 mL of chloroform, and used to dissolve 100 mg of poly(D,L-lactide) (molecular weight 75,000-120,000 Da) and 15 mg PTX or a PTX prodrug. The organic dispersion was emulsified by sonication on ice in 10 mL of an aqueous solution of bovine serum albumin (1% w/v), and the organic solvent was evaporated under reduced pressure. MNP were washed twice by magnetic decantation, resuspended in 6 mL of aqueous trehalose (10% w/v), passed through a sterile 5 μm filter unit and lyophilized. […]
# Cells were incubated with indicated doses of the compounds formulated in MNP for 5 min with or without (mag+ or mag−) the presence of a high gradient magnetic field (average field gradient of 32.5 T/m). Cell viability was determined as above 7 days post treatment.
# A10 cells [6] = assay: A10 inhibition by MNP after 4-day incubation with fetal bovine serum at 37° C. (recovered activity); type: cell-based, rat; details: MNP incubated 4 days in FBS at 37° C. vs fresh MNP, magnetic conditions, 5-20 ng drug per well
# Method: MNP loaded with 2′-PTX-glycol-suc-Chol or PTX at 1 mg/mL were diluted 1:500 in fetal bovine serum (FBS), placed on a tube rotator and incubated for 4 days at 37° C. modeling the exposure of stent-targeted MNP to the in vivo environment. MNP suspensions were then applied to A10 cells for 5 min in the presence of a high gradient magnetic field (See Example 9) in a dose range equivalent to 5-20 ng drug per well based on their initial drug loading. Their growth inhibitory effect was compared with that of fresh MNP applied in equivalent dilutions under magnetic conditions, and the ratio between their respective inhibition efficiencies was plotted as Recovered activity, % of control (See FIG. 4).
smiles,measurement,setting,value
CC(=O)OC1C(=O)C2(C)C(O)CC3OCC3(OC(C)=O)C2C(OC(=O)c2ccccc2)C2(O)CC(OC(=O)C(OC(=O)CCC(=O)OC3CCC4(C)C(=CCC5C4CCC4(C)C(C(C)CCCC(C)C)CCC54)C3)C(NC(=O)c3ccccc3)c3ccccc3)C(C)=C1C2(C)C (stereo not shown) [2′-PTX-suc-Chol],A10 cell growth inhibition,[1],no growth inhibition
"CC(=O)O[C@H]1C(=O)[C@@]2(C)[C@H]([C@H](OC(=O)c3ccccc3)[C@]3(O)C[C@H](OC(=O)[C@H](O)[C@@H](NC(=O)c4ccccc4)c4ccccc4)C(C)=C1C3(C)C)[C@]1(OC(C)=O)CO[C@@H]1C[C@@H]2O [PTX, Paclitaxel]",drug released,[2]; after 4 hr,about 50%
same,drug released,[2]; after 24 hr,~80%
same,total recovered (release medium samples and upon experiment termination),[3],55%
same,initial drug payload still present in the MNP,[3],none
"CCOC(=O)CNC(C)=O [ethyl ester of N-acetylglycine, ethyl esters of N-acetylglycine]",time of half-hydrolysis,[4],27 days
"CC(=O)O[C@H]1C(=O)[C@@]2(C)[C@H]([C@H](OC(=O)c3ccccc3)[C@]3(O)CC(OC(=O)[C@H](OC(=O)COC(=O)CCC(=O)O[C@H]4CC[C@@]5(C)C(=CCC6C7CCC(C(C)CCCC(C)C)[C@@]7(C)CCC65)C4)[C@@H](NC(=O)c4ccccc4)c4ccccc4)C(C)=C1C3(C)C)[C@]1(OC(C)=O)CO[C@@H]1C[C@@H]2O (stereo partly shown) [2′-PTX-glycol-suc-Chol, PTX 2′-(3-cholesteryloxycarbonyl)propionyloxyacetate]",A10 cell growth inhibition,[1],dose-dependent A10 cell growth inhibition
same,"A10 cell growth inhibition, magnetic field (mag+)",A10 cells [5],comparable to that of MNP loaded with PTX
same,"Recovered activity, % of control (fraction of initial activity retained)",A10 cells [6],retained a larger fraction of its initial activity compared to PTX
same,total recovered (release medium samples and upon experiment termination),[3],81%
same,initial drug payload still present in the MNP,[3],30%
same,release kinetics from MNP vs. PTX,"[3]; external sink method, 5 days",significantly slower release kinetics
CCOC(=O)COC(C)=O [ethyl ester of acetoxyacetic acid],time of half-hydrolysis,[4],9 days
"CC(=O)O[C@H]1C(=O)[C@@]2(C)[C@H]([C@H](OC(=O)c3ccccc3)[C@]3(O)CC(OC(=O)[C@H](OC(=O)CNC(=O)CCC(=O)O[C@H]4CC[C@@]5(C)C(=CCC6C7CCC(C(C)CCCC(C)C)[C@@]7(C)CCC65)C4)[C@@H](NC(=O)c4ccccc4)c4ccccc4)C(C)=C1C3(C)C)[C@]1(OC(C)=O)CO[C@@H]1C[C@@H]2O (stereo partly shown) [2′-PTX-glycine-suc-Chol, PTX 2′-[N-(3-cholesteryloxycarbonyl)propionyl]glycinate]",A10 cell growth inhibition,[1],dose-dependent A10 cell growth inhibition
same,"A10 cell growth inhibition, magnetic field (mag+)",A10 cells [5],comparable to that of MNP loaded with PTX
CCOC(C)=O [ethyl acetate],time of half-hydrolysis,[4],approximately 200 days
